Source: patent US6479435B1, “Diaryl ethers and processes for their preparation and herbicidal and desiccant compositions containing them” (ISK Americas Incorporated, priority 1997, dated 2002)

How the values were obtained:
[1] = system: Grass Weeds; assay: Post-emergent application in combination with other herbicides, percent control of grass weeds; type: in vivo
Experimental: All test compounds were dissolved in acetone and applied to the test units in a volume of 187 l/ha. Test materials were applied at rates ranging from 125 g ai/ha to 1000 g ai/ha using a track sprayer equipped with a TJ8001E even flow flat fan spray nozzle. Plants were arranged on a shelf so that the top of the canopy (post-emerge) or top of the soil surface (pre-emerge) was 40-45 cm below the nozzle. Pressurized air was used to force the test solution through the nozzle as it was mechanically advanced (via electrically driven chain drive) over the top of all test plants/pots. This application simulates a typical commercial field herbicide application. In the post-emerge test, a commercial non-ionic surfactant was also included (0.25% v/v) to enhance wetting of the leaf surfaces Qf target plants at rates ranging from 63 g ai/ha to 1000 g ai/ha. For post-emerge tests, seeds were planted 8-21 days prior to the test to allow emergence and good foliage development prior to application of the test substances. At the time of the post-emerge application, plants of all species were usually at the 2-3 leaf stage of development. Post-emerge test units were always bottom-watered. At 14 days after application of the test materials, phytotoxicity ratings were recorded. A rating scale of 0-100 was used as previously described in Research Methods in Weed Science, 2nd edition, B. Truelove, Ed., Southern Weed Science Society, Auburn University, Auburn, Ala., 1977. Briefly, “0” corresponds to no damage and “100” corresponds to complete death of all plants in the test unit. This scale was used both to determine efficacy against weed species and damage to crop species. Herbicide activity data for various compounds of this invention, which are shown by compound number in Tables 1-9, are shown in Tables 13 and 14. […] (Note: Weed species abbreviations are from the Composite List of Weeds published by the Weed Science Society of America, 1989.) The following examples illustrate the utility of combinations of compounds of this invention and existing herbicides. The methods used are identical to those for the application of single compounds except the commercial formulations of existing herbicides were added to the spray mixture in the appropriate amounts before spraying. Combination Example 3. Post-emergent Application of Compound 9-1 with Nicosulfuron Combination Example 4. Postemergent Application of Compound 9-1 with Pyridate

[2] = system: Broadleaf Weeds; assay: Post-emergent application in combination with other herbicides, percent control of broadleaf weeds; type: in vivo
Experimental: All test compounds were dissolved in acetone and applied to the test units in a volume of 187 l/ha. Test materials were applied at rates ranging from 125 g ai/ha to 1000 g ai/ha using a track sprayer equipped with a TJ8001E even flow flat fan spray nozzle. Plants were arranged on a shelf so that the top of the canopy (post-emerge) or top of the soil surface (pre-emerge) was 40-45 cm below the nozzle. Pressurized air was used to force the test solution through the nozzle as it was mechanically advanced (via electrically driven chain drive) over the top of all test plants/pots. This application simulates a typical commercial field herbicide application. […] For post-emerge tests, seeds were planted 8-21 days prior to the test to allow emergence and good foliage development prior to application of the test substances. At the time of the post-emerge application, plants of all species were usually at the 2-3 leaf stage of development. Post-emerge test units were always bottom-watered. At 14 days after application of the test materials, phytotoxicity ratings were recorded. A rating scale of 0-100 was used as previously described in Research Methods in Weed Science, 2nd edition, B. Truelove, Ed., Southern Weed Science Society, Auburn University, Auburn, Ala., 1977. Briefly, “0” corresponds to no damage and “100” corresponds to complete death of all plants in the test unit. This scale was used both to determine efficacy against weed species and damage to crop species. Herbicide activity data for various compounds of this invention, which are shown by compound number in Tables 1-9, are shown in Tables 13 and 14. […] (Note: Weed species abbreviations are from the Composite List of Weeds published by the Weed Science Society of America, 1989.) The following examples illustrate the utility of combinations of compounds of this invention and existing herbicides. The methods used are identical to those for the application of single compounds except the commercial formulations of existing herbicides were added to the spray mixture in the appropriate amounts before spraying. Combination Example 3. Post-emergent Application of Compound 9-1 with Nicosulfuron Combination Example 4. Postemergent Application of Compound 9-1 with Pyridate

COc1cc(OC)nc(NC(=O)NS(=O)(=O)c2ncccc2C(=O)N(C)C)n1 [Nicosulfuron, reference compound]
Percent Control of Grass Weeds DIGSA ([1]; 23 g ai/ha): 80%
Percent Control of Grass Weeds ECHCG ([1]; 23 g ai/ha): 95%
Percent Control of Grass Weeds SETVI ([1]; 23 g ai/ha): 85%
Percent Control of Grass Weeds SORHA ([1]; 23 g ai/ha): 85%
Percent Control of Broadleaf Weeds ABUTH ([2]; 23 g ai/ha): 55%
Percent Control of Broadleaf Weeds AMARE ([2]; 23 g ai/ha): 70%
Percent Control of Broadleaf Weeds AMBEL ([2]; 23 g ai/ha): 0%
Percent Control of Broadleaf Weeds CASOB ([2]; 23 g ai/ha): 30%
Percent Control of Broadleaf Weeds CHEAL ([2]; 23 g ai/ha): 70%
Percent Control of Broadleaf Weeds IPOHE ([2]; 23 g ai/ha): 70%

CCCCCCCCSC(=O)Oc1cc(Cl)nnc1-c1ccccc1 [Pyridate, reference compound]
Percent Control of Grass Weeds DIGSA ([1]; 527 g ai/ha): 10%
Percent Control of Grass Weeds ECHCG ([1]; 527 g ai/ha): 50%
Percent Control of Grass Weeds SETVI ([1]; 527 g ai/ha): 95%
Percent Control of Grass Weeds SORHA ([1]; 527 g ai/ha): 10%
Percent Control of Broadleaf Weeds ABUTH ([2]; 527 g ai/ha): 60%
Percent Control of Broadleaf Weeds AMARE ([2]; 527 g ai/ha): 90%
Percent Control of Broadleaf Weeds AMBEL ([2]; 527 g ai/ha): 40%
Percent Control of Broadleaf Weeds CASOB ([2]; 527 g ai/ha): 10%
Percent Control of Broadleaf Weeds CHEAL ([2]; 527 g ai/ha): 85%
Percent Control of Broadleaf Weeds IPOHE ([2]; 527 g ai/ha): 80%

N#Cc1ccccc1Oc1cc(-n2c(=O)cc(C(F)(F)F)n(N)c2=O)c(F)cc1Cl [Compound 9-30, 1-Amino-3-[4-chloro2-fluoro-5-(2-cyanophenoxy)phenyl]-6-trifluoromethyl-1,2,3,4-tetrahydropyrimidine-2,4-dione]
melting point: 220 to 222 °C

CS(=O)(=O)c1cccnc1Oc1cc(-n2c(=O)cc(C(F)(F)F)n(N)c2=O)c(F)cc1Cl [Compound 9-19, 1-Amino-3-[4-chloro-2-fluoro-5-(3-methylsulfonyl-2-pyridyloxy)phenyl]-6-trifluoromethyl-1,2,3,4-tetrahydropyrimidine-2,4-dione]
melting point: 276 to 278 °C

N#Cc1c(F)cccc1Oc1cc(-n2c(=O)cc(C(F)(F)F)n(N)c2=O)c(F)cc1Cl [Compound 9-31, 1-Amino-3-[4-chloro-2-fluoro-5-(2-cyano-3-fluorophenoxy)phenyl]-6-trifluoromethyl-1,2,3,4-tetrahydropyrimidine-2,4-dione]
melting point: 230 to 233 °C

CCS(=O)(=O)c1cccnc1Oc1cc(-n2c(=O)cc(C(F)(F)F)n(N)c2=O)c(F)cc1Cl [Compound 9-13, 1-Amino-3-[4-Chloro-2-fluoro-5-(3-ethylsulfonyl-2-pyridyloxy)phenyl]-6-trifluoromethyl-1,2,3,4-tetrahydropyrimidine-2,4-dione]
melting point: 277 to 279 °C
